Reference: article PMC12363342, “Investigating the N-terminal linker histone H1 subtypes as substrates for JmjC lysine demethylases” (RSC Chemical Biology, 2025)
Square brackets hold non-standard residues; d marks the D form. Ends that are not written are not given here. Lys(Me3) = C[N+](C)(C)CCCC[C@H](N)C(=O)O; Lys(Me2) = CN(C)CCCC[C@H](N)C(=O)O

Assays:
KDM3A = assay: LC-MS demethylation activity assay, KDM3A; assay type: biochemical, human; details: 2 μM KDM, 10 μM H1/H3 peptide, 10 μM FAS, 100 μM LAA, 20 μM 2OG, 50 mM HEPES pH 7.5, 2 h, room temperature; for KDM3A demethylation activity, D: D (di-) initial methylation state; for KDM3A demethylation activity, M: M (mono-) initial methylation state
Description: (§1) The substrate specificity of JmjC KDMs for H1 was examined using liquid chromatography coupled to mass spectrometry (LC-MS) assays. The H1 peptides (10 μM) were incubated with the recombinant KDM (2 μM) in HEPES buffer at pH 7.5 at room temperature for 2 h, in the presence of ferrous(II) ammonium sulfate (FAS, 10 μM), sodium ascorbate (LAA, 100 μM) and 2OG (20 μM), and then quenched with formic acid. N^ε-Methylated H3K9 and H3K36 peptides were used as positive controls (Fig. 3–5 and Fig. S2–S6).[26]
(§2) The catalytic domains of the JmjC KDMs used were recombinantly produced as reported in either Escherichia coli (KDM4AM1-L359,[38] KDM4DM1-L359,[39] KDM4EM1-R336,[30] KDM6BD1141–E1590[40] and KDM3CL2157-L2500) or Sf9 cells (KDM3AT515–S1317, KDM3B882–1761, and KDM5DM1-D775) as N-terminally His6-tagged proteins. […] To produce proteins, DNA sequences encoding for KDM3A, KDM3B and KDM5D were inserted into the pFB-LIC vector, containing a TEV-protease cleavable N-terminal 6x-histidine tag via ligation independent cloning (LIC). The resultant plasmids were transformed into baculovirus and Sf9 cells ([…]) which were infected with the virus stock. The cells were grown at 27 °C and 90 rpm for 70 h. Cells were then harvested and suspended in 100 mL of lysis buffer (50 mM HEPES-NaOH, pH 7.4, 500 mM NaCl, 20 mM imidazole, 0.5 mM Tris (2-carboxyethyl)phosphine (TCEP), 5% (v/v) glycerol). […] The supernatant was loaded onto a Ni-NTA gravity column, washed with 10 column volume of lysis buffer and eluted using the elution buffer (50 mM HEPES-NaOH, pH 7.4, 500 mM NaCl, 300 mM imidazole, 0.5 mM TCEP, 5% (v/v) glycerol). The eluted protein was further purified using S200 gel filtration column chromatography (50 mM HEPES-NaOH, pH 7.4, 150 mM NaCl, 0.5 mM TCEP and 5% glycerol). Protein purity was analysed by SDS-PAGE and further confirmed by mass spectrometry. Selected fractions were pooled, concentrated and stored at −80 °C.
(§3) All reagents were purchased from Sigma Aldrich and were of the highest grade available. Ferrous(II) ammonium sulfate (FAS) solutions were prepared freshly by dissolving FAS to 400 mM in 20 mM HCl with subsequent dilution to 1 mM using deionized water. Fresh 2OG (10 mM) and LAA (50 mM) solutions were prepared by dissolving the solids in deionised water. All enzyme reactions were performed in 384-well plates (Greiner Bio-One) with a final reaction volume of 50 μL. Substrate mixtures contained 50 mM HEPES pH 7.5, LAA (100 μM), FAS (10 μM), 2OG (20 μM) and an H1 isoform peptide (10 μM). Reactions were initiated by the addition of enzyme to a final concentration of 2.0 μM. After 2 h, the reactions were stopped by the addition of 5 μL of 10% (v/v) LC-MS grade formic acid (Fisher Scientific) to a final concentration of 1% (v/v). Product analyses were performed by liquid chromatography-mass spectrometry (LC-MS) using an Agilent 1290 infinity II LC system equipped with an Agilent 1290 multisampler and an Agilent 1290 high speed pump and connected to an Agilent 6550 accurate mass iFunnel quadrupole time of flight (Q-TOF) mass spectrometer. 1 μL of the reaction mixture was injected onto a 1.8 μm × 2.1 × 50 mm ZORBAX RRHD Eclipse Plus C18 column (Agilent). Solvent A consisted of HPLC grade water containing 0.1% (v/v) formic acid and solvent B consisted of MeCN containing 0.1% (v/v) formic acid. Peptides were separated using a stepwise gradient (0 min – 95% solvent A, 1.0 min – 80% solvent A, 3.0 min – 45% solvent A, 4.0 min – 45% solvent A, 5.0 min – 0% solvent A, 6.0 min – 0% solvent A, 7.0 min – 95% solvent A). This was followed by a 3 min post-run with 95% solvent A to re-equilibrate the column. All flow rates were 0.2 mL min^−1. A blank injection of HPLC grade water was carried out between each sample injection.

KDM3B = assay: LC-MS demethylation activity assay, KDM3B; assay type: biochemical, human; details: 2 μM KDM, 10 μM H1/H3 peptide, 10 μM FAS, 100 μM LAA, 20 μM 2OG, 50 mM HEPES pH 7.5, 2 h, room temperature; for KDM3B demethylation activity, D: D (di-) initial methylation state; for KDM3B demethylation activity, M: M (mono-) initial methylation state
Description: as §1, §2, §3

KDM3C = assay: LC-MS demethylation activity assay, KDM3C; assay type: biochemical, human; details: 2 μM KDM, 10 μM H1/H3 peptide, 10 μM FAS, 100 μM LAA, 20 μM 2OG, 50 mM HEPES pH 7.5, 2 h, room temperature; for KDM3C demethylation activity, D: D (di-) initial methylation state; for KDM3C demethylation activity, M: M (mono-) initial methylation state
Description: as §1, §2, §3

KDM4A = assay: LC-MS demethylation activity assay, KDM4A; assay type: biochemical, human; details: 10 μM FAS, 100 μM LAA, 20 μM 2OG, room temperature; for substrate conversion (demethylation) by KDM4A: 2 μM KDM4A, 10 μM peptide, HEPES pH 7.5, 2 h; for KDM4A demethylation activity, D: D (di-) initial methylation state; for KDM4A demethylation activity, M: M (mono-) initial methylation state
Description: as §1, §2, §3

KDM4D = molecular target: T1, KDM4D (Homo sapiens, UniProt Q6B0I6); assay: LC-MS demethylation activity assay, KDM4D; assay type: biochemical; details: room temperature; for KDM4D demethylation activity, D: D (di-) initial methylation state; for KDM4D demethylation activity, M: M (mono-) initial methylation state
T1 construct: KDM4AM1-L359,[38]; KDM4DM1-L359,[39]; KDM4EM1-R336,[30]; His6 (N); made in house; host or cells: Escherichia coli
T1 sequence (Q6B0I6 1-359): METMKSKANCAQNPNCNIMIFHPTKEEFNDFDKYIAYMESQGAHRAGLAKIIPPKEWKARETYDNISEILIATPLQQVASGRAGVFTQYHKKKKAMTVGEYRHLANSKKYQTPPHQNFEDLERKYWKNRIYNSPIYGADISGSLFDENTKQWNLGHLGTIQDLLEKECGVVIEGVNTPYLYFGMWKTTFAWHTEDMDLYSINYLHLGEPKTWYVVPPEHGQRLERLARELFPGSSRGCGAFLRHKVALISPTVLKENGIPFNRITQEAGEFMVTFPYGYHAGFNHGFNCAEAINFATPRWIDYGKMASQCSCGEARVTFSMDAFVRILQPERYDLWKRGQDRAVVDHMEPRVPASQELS
Description: as §1, §2, §3

KDM4E = molecular target: T2, KDM4E (Homo sapiens, UniProt B2RXH2); assay: LC-MS demethylation activity assay, KDM4E; assay type: biochemical; details: 10 μM FAS, 100 μM LAA, 20 μM 2OG, room temperature; for substrate conversion (demethylation) by KDM4E: 2 μM KDM4E, 10 μM peptide, HEPES pH 7.5, 2 h; for KDM4E demethylation activity, D: D (di-) initial methylation state; for KDM4E demethylation activity, M: M (mono-) initial methylation state
T2 construct: KDM4DM1-L359,[39]; KDM4EM1-R336,[30]; His6 (N); made in house; host or cells: Escherichia coli
T2 sequence (B2RXH2 1-336): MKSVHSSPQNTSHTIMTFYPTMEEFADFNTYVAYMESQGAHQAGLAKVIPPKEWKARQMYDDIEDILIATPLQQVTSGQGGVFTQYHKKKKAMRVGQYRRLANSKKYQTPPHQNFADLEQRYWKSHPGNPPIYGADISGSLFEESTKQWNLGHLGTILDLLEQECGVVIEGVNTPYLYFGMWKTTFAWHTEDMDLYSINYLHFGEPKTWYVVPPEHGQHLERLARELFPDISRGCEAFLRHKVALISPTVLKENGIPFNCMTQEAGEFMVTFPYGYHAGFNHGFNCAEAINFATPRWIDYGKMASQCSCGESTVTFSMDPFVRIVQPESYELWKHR
Description: as §1, §2, §3

KDM5D = assay: LC-MS demethylation activity assay, KDM5D; assay type: biochemical, human; details: 2 μM KDM, 10 μM H1/H3 peptide, 10 μM FAS, 100 μM LAA, 20 μM 2OG, 50 mM HEPES pH 7.5, 2 h, room temperature; for KDM5D demethylation activity, D: D (di-) initial methylation state; for KDM5D demethylation activity, M: M (mono-) initial methylation state
Description: as §1, §2, §3

KDM6B = assay: LC-MS demethylation activity assay, KDM6B; assay type: biochemical, human; details: 2 μM KDM, 10 μM H1/H3 peptide, 10 μM FAS, 100 μM LAA, 20 μM 2OG, 50 mM HEPES pH 7.5, 2 h, room temperature; for KDM6B demethylation activity, D: D (di-) initial methylation state; for KDM6B demethylation activity, M: M (mono-) initial methylation state
Description: as §1, §2, §3

[1] = T (tri-) initial methylation state
[2] = 2 μM KDM, 10 μM H1/H3 peptide, 50 mM HEPES pH 7.5, 2 h, T (tri-) initial methylation state
[3] = 2 μM KDM4D, 10 μM peptide, standard conditions, 2 h
[4] = 2 μM KDM, 10 μM H1/H3 peptide, 50 mM HEPES pH 7.5, 2 h
[5] = 2 μM KDM, 10 μM H1/H3 peptide, 10 μM FAS, 100 μM LAA, 20 μM 2OG, 50 mM HEPES pH 7.5, 2 h

Row | Substance | substrate conversion (demethylation) by KDM4A (KDM4A) | substrate conversion (demethylation) by KDM4E (KDM4E) | KDM3A demethylation activity, D (KDM3A) | KDM3B demethylation activity, D (KDM3B) | KDM3C demethylation activity, D (KDM3C) | KDM4A demethylation activity, D (KDM4A; [4]) | KDM4D demethylation activity, D (KDM4D; [5]) | KDM4E demethylation activity, D (KDM4E; [4]) | KDM5D demethylation activity, D (KDM5D) | KDM6B demethylation activity, D (KDM6B) | KDM3A demethylation activity, M (KDM3A) | KDM3B demethylation activity, M (KDM3B) | KDM3C demethylation activity, M (KDM3C) | KDM4A demethylation activity, M (KDM4A; [4]) | KDM4D demethylation activity, M (KDM4D; [5]) | KDM4E demethylation activity, M (KDM4E; [4]) | KDM5D demethylation activity, M (KDM5D) | KDM6B demethylation activity, M (KDM6B) | further results
1 | KKKAK[Lys(Me3)]AGATAGKRK [Peptide H1.3K25me3, 15-mer linker histone H1.3 residues 20-34 peptide, tri-methylated K25] | < 10% | < 10% |  |  |  |  |  |  |  |  |  |  |  |  |  |  |  |  | KDM3A demethylation activity, T (KDM3A; [1]): ● [red]; KDM3B demethylation activity, T (KDM3B; [1]): ● [red]; KDM3C demethylation activity, T (KDM3C; [1]): ● [red]; KDM4A demethylation activity, T (KDM4A; [2]): ● [black] (black dots indicate low-level demethylation (<10% conversion)); KDM4D demethylation activity, in words (KDM4D; [3]): No activity was observed; di-methylated product formed by KDM4D (KDM4D; [3]): < 5%; KDM4D demethylation activity, T (KDM4D; 2 μM KDM, 10 μM H1/H3 peptide, 10 μM FAS, 100 μM LAA, 20 μM 2OG, 50 mM HEPES pH 7.5, 2 h, T (tri-) initial methylation state): ● [red]; KDM4E demethylation activity, T (KDM4E; [2]): ● [black] (black dots indicate low-level demethylation (<10% conversion)); KDM5D demethylation activity, T (KDM5D; [1]): ● [red]; KDM6B demethylation activity, T (KDM6B; [1]): ● [red]
2 | KKKAR[Lys(Me2)]SAGAAKRKA [Peptide H1.4K25me2, 15-mer linker histone H1.4 residues 20-34 peptide, di-methylated K25] | ~20% | ~50% | ● [red] | ● [red] | ● [red] | ● [black] (black dots indicate low-level demethylation (<10% conversion)) | ● [yellow] (yellow dots indicate moderate demethylation (<50% conversion)) | ● [red] | ● [red] | ● [red] |  |  |  |  |  |  |  |  | substrate conversion (demethylation) by KDM4D (KDM4D; 2 μM KDM4D, 10 μM peptide, 10 μM FAS, 100 μM LAA, 20 μM 2OG, HEPES pH 7.5, 2 h): > 40%
3 | KKKATKKmeAAGAGAAK [Peptide H1.5K26me, 15-mer linker histone H1.5 residues 20-34 peptide, mono-methylated K26] |  |  |  |  |  |  |  |  |  |  | ● [red] | ● [red] | ● [red] | ● [red] | ● [red] | ● [red] | ● [red] | ● [red] | 
4 | KKKATK[Lys(Me2)]AAGAGAAK [Peptide H1.5K26me2, 15-mer linker histone H1.5 residues 20-34 peptide, di-methylated K26] |  | > 40% | ● [red] | ● [red] | ● [red] | ● [red] | ● [black] (black dots indicate low-level demethylation (<10% conversion)) | ● [green] (green dots indicate good demethylation (>50% conversion)) | ● [red] | ● [red] |  |  |  |  |  |  |  |  | 
5 | KKKATKmeKAAGAGAAK [Peptide H1.5K25me, 15-mer linker histone H1.5 residues 20-34 peptide, mono-methylated K25] |  |  |  |  |  |  |  |  |  |  | ● [red] | ● [red] | ● [red] | ● [red] | ● [red] | ● [red] | ● [red] | ● [red] | 
6 | KKKAT[Lys(Me2)]KAAGAGAAK [Peptide H1.5K25me2, 15-mer linker histone H1.5 residues 20-34 peptide, di-methylated K25] |  |  | ● [red] | ● [red] | ● [red] | ● [red] | ● [red] | ● [red] | ● [red] | ● [red] |  |  |  |  |  |  |  |  | 
